From US5244916A, “Inhibition of respiratory burst using posttranslational modification inhibitors” (The Scripps Research Institute, priority 1992, dated 1993)

Assays:
[1] = test system: HL-60 cells (NADPH oxidase / respiratory burst); test: Prevention of compactin-inhibition of FMLP-stimulated O2- formation in HL-60 cells by mevalonic acid and other supplements; type: cell-based; conditions: for block in NADPH oxidase activity / cellular responsiveness after supplementation: compactin-treated HL-60 cells, exogenous supplement
Protocol: (§1) HL-60 cells were maintained in stationary culture in RPMI 1640 medium (Gibco, Grand Island, NY) containing 10% fetal bovine serum at 37° C in an atmosphere of 95 air and 5% CO2. The cells (about 8×10^5 /ml) were differentiated into neutrophil-like cells by treatment with 1.3% DMSO for six days (Harris, et al., J. Leukocyte Biol. 37: 407-422 (1985)). The cells were treated with the indicated levels of compactin or lovastatin by addition of a 1,000-fold concentrated stock solution to the appropriate concentration on day 4 of differentiation. […] In studies of the protective effect of mevalonic acid, the compound was added as the mevalonolactone (Sigma Chemical Co., St. Louis, MO) at a concentration of 1 mM to the cell culture on days 4 to 6. Similarly, cholesterol was added in the form of LDL prepared according to the method of Curtiss and Edgington (Curtiss, et al., J. Biol. Chem. 257: 15213-15221 (1991)) at a final concentration of 50 μg/ml; ubiquinone (Sigma Chemical Co., St. Louis, MO) was added as Coenzyme Q-10 at a final concentration of 0.5 mM; and dolichol (Sigma Chemical Co., St. Louis, MO) was added as a dispersion in phosphatidylcholine at a final concentration of 0.5 mM (Cutts, et al., J. Cell Physiol. 139: 550-555 (1989)).
O2 --formation by HL-60 cells was assessed by the SOD-sensitive reduction of cytochrome c. Cells were suspended at 1×10^7 /ml in Krebs-Ringer Hepes buffer with 5.5 mM glucose (KRHG) and 50-100μl of cells were added to a cuvette containing 100 μM cytochrome c (type III, Sigma Chemical Co., St. Louis, MO), ±300 μg/ml SOD (Sigma Chemical Co., St. Louis, MO) in 700-750 μl KRHG. Cytochalasin b (Sigma Chemical Co., St. Louis, MO) was added to a final concentration of 5 μg/ml, and the cells were incubated at 37° C. for five minutes while a stable baseline at a wavelength of 550 nm was obtained. O2 --formation was initiated by the addition of 1 μM N-formylmethionylleucylphenylalanine (FMLP; Sigma Chemical Co., St. Louis, MO) or 1μg/ml phorbol myristate acetate (PMA; Sigma Chemical Co., St. Louis, MO). Cytochrome c reduction at 550nm was continuously monitored and maximal rate and extent of the reaction calculated.
Inhibition of protein isoprenylation can interfere with LMWG function without inhibiting overall cellular function (Maltese, supra (1990)). Since compactin inhibits at the enzymatic step preceding mevalonic acid synthesis, one should be able to reverse effects of compactin due specifically to inhibition of this pathway by addition of exogenous mevalonic acid.

[2] = test system: HL-60 cells; test: HL-60 cell viability by propidium iodide uptake (flow cytometry)
Protocol: as §1, with “The cells were treated with the indicated levels of compactin or lovastatin by addition of a 1,000-fold concentrated stock solution to the appropriate concentration on day 4 of differentiation.” left out
Cell viability was determined by uptake of propidium iodide (537-059; Calbiochem-Behring Corp., La Jolla, CA), detected from the emission fluorescence at 625/35 nm using a DM560 dichronic mirror (Krishan, J. Cell. Biol. 66: 188-192 (1975)). Expression of N-formyl peptide receptor was determined using fluorescein-labeled N-CHONle-Leu-Phe-Nle-Tyr-Lys (Molecular Probes, Inc., Eugene, OR) essentially by the method of Sklar and Finney (Sklar and Finney, Cytometry 3: 161-165 (1982)). Specificity of ligand binding was determined in the presence of 4 mM unlabeled T-boc peptide. CD14 expression was determined using monoclonal antibody 3C10 at a dilution of 1:1,000 (see Goyert and Ferrero, in Leucocyte Typing III: White Cell Differentiation Antigens, McMichael, ed., Oxford Univ. Press, NY, pp. 613-619 (1988)), with detection using a fluorescein-labeled secondary antibody. Flow cytometric analyses were performed on a FACSIV (registered trademark of Becton-Dickinson, San Jose, CA) equipped with a 2W argon laser (Coherent Inc., Palo Alto, collected in list mode and analyzed using the Consort 30 program (Becton-Dickinson, San Jose, CA) after collecting 10,000 events.

[3] = test system: NADPH oxidase in HL-60 cells; test: Inhibition of NADPH oxidase activation / O2- generation in HL-60 cells (stimulus not singled out); type: cell-based
Protocol: as §1, with “(1989)). O2 --formation by HL-60 cells was assessed by the SOD-sensitive reduction of cytochrome c. Cells were suspended at 1×10^7 /ml in Krebs-Ringer Hepes buffer with 5.5 mM glucose (KRHG) and 50-100μl of cells were added to a cuvette containing 100 μM cytochrome c (type III, Sigma Chemical Co., St. Louis, MO), ±300 μg/ml SOD (Sigma Chemical Co., St. Louis, MO) in 700-750 μl KRHG. Cytochalasin b (Sigma Chemical Co., St. Louis, MO) was added to a final concentration of 5 μg/ml, and the cells were incubated at 37° C. for five minutes while a stable baseline at a wavelength of 550 nm was obtained. O2 --formation was initiated by the addition of 1 μM N-formylmethionylleucylphenylalanine (FMLP; Sigma Chemical Co., St. Louis, MO) or 1μg/ml phorbol myristate acetate (PMA; Sigma Chemical Co., St. Louis, MO). Cytochrome c reduction at 550nm was continuously monitored and maximal rate and extent of the reaction calculated.” for “(1989)).”

CC(C)CCC[C@@H](C)[C@H]1CC[C@H]2[C@@H]3CC=C4C[C@@H](O)CC[C@]4(C)[C@H]3CC[C@]12C [cholesterol]
effect on compactin blockade of oxidase activity ([1]; 50 μg/ml LDL cholesterol): no effect
FMLP-stimulated O2- formation, Extent ([1]; 50 μg/ml cholesterol, no compactin, n = 2): 99 % of control
FMLP-stimulated O2- formation, Rate ([1]; 50 μg/μl cholesterol, no compactin, n = 2): 90 % of control
block in NADPH oxidase activity / cellular responsiveness after supplementation [1]: apparently not overcome

CC[C@H](C)C(=O)O[C@H]1C[C@@H](C)C=C2C=C[C@H](C)[C@H](CC[C@@H]3C[C@@H](O)CC(=O)O3)[C@H]21 [lovastatin]
cell viability when inhibitor added at day 1 of differentiation [2]: somewhat decreased
inhibition of NADPH oxidase activation, effective concentrations [3]: micromolar concentrations
ability of HL-60 cells to generate O2- ([3]; response to receptor stimuli and downstream activators): markedly inhibited

C[C@@](O)(CCO)CC(=O)O [mevalonic acid]
FMLP-stimulated O2- formation, Extent ([1]; 1 mM mevalonate, no compactin): 111 ± 8.0 % of control
FMLP-stimulated O2- formation, Rate ([1]; 1 mM mevalonate, no compactin): 120 ± 10 % of control
reversal of compactin inhibition of O2- formation ([1]; 1 mM mevalonic acid (as mevalonolactone), 4 or 10 μM compactin): nearly completely reversed
block in NADPH oxidase activity / cellular responsiveness after supplementation [1]: totally restored
effect on control rate or extent of O2- formation ([1]; no compactin): no consistent effect

COC1=C(OC)C(=O)C(C/C=C(\C)CC/C=C(\C)CC/C=C(\C)CC/C=C(\C)CC/C=C(\C)CC/C=C(\C)CC/C=C(\C)CC/C=C(\C)CC/C=C(\C)CCC=C(C)C)=C(C)C1=O [ubiquinone]
effect on compactin blockade of oxidase activity ([1]; 0.5 mM ubiquinone): no effect
block in NADPH oxidase activity / cellular responsiveness after supplementation [1]: apparently not overcome

dolichol
effect on compactin blockade of oxidase activity ([1]; 0.5 mM dolichol): no effect
block in NADPH oxidase activity / cellular responsiveness after supplementation [1]: apparently not overcome
